This is an account of results in patent publication US5712300A, “Hydroxamic acid derivatives useful for the treatment of diseases related to connective tissue degradation” (priority 1997, dated 1998).

The term Ki denotes the equilibrium dissociation constant of an inhibitor or competing ligand from its target.

Format in all cases: biochemical
One experiment concerns the target Stromelysin (Homo sapiens, UniProt P08254). The experiment can be described thus: MMP inhibition by particle concentration fluorescence technique (stromelysin). The note with it: pH 7.5; 15 min enzyme preincubation; substrate 1-3 h at room temperature; read-out: MMP Inhibition Constants, Stromelysin Ki. In short, it runs like this:
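Fluorescein- and biotin-labelled substrate captured on avidin particles after reaction; intact, uncleaved substrate retains fluorescence, so signal rises with inhibition. Activated enzyme incubated with two-fold serial compound dilutions 15 minutes at room temperature.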

The target in another experiment is Gelatinase. In words: MMP inhibition by particle concentration fluorescence technique (gelatinase). The settings on record: pH 7.5; 15 min enzyme preincubation; substrate 1-3 h at room temperature; read-out: MMP Inhibition Constants, Gelatinase Ki. An outline of the steps: (§1)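 Compound serially diluted two-fold in 50 mM Tris-HCl pH 7.5, 150 mM NaCl, preincubated 15 min with activated enzyme at room temperature. Fluorescein/biotin-tagged substrate then added for 1-3 hours in the dark. Intact substrate captured on avidin-coated particles; fluorescence signal indicates inhibition.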

Another experiment deals with T1, Collagenase (Homo sapiens, UniProt P03956).
T1 sequence (P03956 100-469): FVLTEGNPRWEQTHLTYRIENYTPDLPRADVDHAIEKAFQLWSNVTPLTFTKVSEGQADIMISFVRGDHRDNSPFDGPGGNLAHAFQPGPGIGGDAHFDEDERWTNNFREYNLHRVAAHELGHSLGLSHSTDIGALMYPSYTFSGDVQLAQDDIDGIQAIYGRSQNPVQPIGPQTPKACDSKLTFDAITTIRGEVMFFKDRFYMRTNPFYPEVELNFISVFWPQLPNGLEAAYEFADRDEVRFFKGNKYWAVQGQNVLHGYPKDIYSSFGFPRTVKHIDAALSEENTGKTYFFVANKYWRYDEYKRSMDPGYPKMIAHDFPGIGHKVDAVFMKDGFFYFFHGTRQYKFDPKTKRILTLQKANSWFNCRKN
The experiment can be described thus: MMP inhibition by particle concentration fluorescence technique (collagenase). The settings on record: pH 7.5; 15 min enzyme preincubation; substrate 1-3 h at room temperature; read-out: MMP Inhibition Constants, Collagenase Ki. In short, it runs like this: as §1

Stromelysin, sequence (P08254 100-477): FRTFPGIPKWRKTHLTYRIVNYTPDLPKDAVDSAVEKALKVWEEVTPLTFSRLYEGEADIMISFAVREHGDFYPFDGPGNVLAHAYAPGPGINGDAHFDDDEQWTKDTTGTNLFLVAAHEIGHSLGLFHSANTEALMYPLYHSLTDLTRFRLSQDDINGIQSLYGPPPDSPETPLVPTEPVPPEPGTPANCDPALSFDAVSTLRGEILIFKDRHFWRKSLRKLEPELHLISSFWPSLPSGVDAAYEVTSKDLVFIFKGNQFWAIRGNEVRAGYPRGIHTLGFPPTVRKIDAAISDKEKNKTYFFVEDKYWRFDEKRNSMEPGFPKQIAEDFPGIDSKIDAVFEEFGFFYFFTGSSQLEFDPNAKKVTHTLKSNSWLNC

As for `CC(C)C[C@@]1([C@@H](CCN2Cc3cc(F)ccc3C2=O)C(=O)NO)CCN(CCc2ccccc2)C1=O` [Example 88, [R-(R*,S*)]-5-Fluoro-1,3-dihydro-N-hydroxy-α-[3-(2-methylpropyl)-2-oxo-1-(2-phenylethyl)-3-pyrrolidinyl]-1-oxo-2H-isoindole-2-butanamide], the figures for the Ki at Stromelysin, on Gelatinase and on Collagenase were 288 nM, 62 nM and 326 nM, respectively.

Regarding `O=C(NCC[C@@H](C(=O)NO)[C@]1(CCCO)CCN(CCc2ccccc2)C1=O)c1cccc(F)c1` [Example 96, [R-(R*,S*)]-α-[2-[(3-Fluorebenzoyl)amino]ethyl]-N-hydroxy-3-(3-hydroxypropyl)-2-oxo-1-(2-phenylethyl)-3-pyrrolidineacetamide], the values for the Ki at Stromelysin, at Gelatinase and at Collagenase were 8.7 nM, 0.98 nM and 12.7 nM, respectively.
